Assay results published in patent US20140163026A1, “8-ETHYL-6-(ARYL)PYRIDO[2,3-D]PYRIMIDIN-7(8H)-ONES FOR THE TREATMENT OF NERVOUS SYSTEM DISORDERS AND CANCER” (Afraxis Holdings, Inc., priority 2011, published 2014).

How the values were obtained:
PAK2 (PAK65) = PAK2 (PAK65) (Homo sapiens, UniProt Q13177); experiment: In vitro PAK inhibition assay (SelectScreen, Ser/Thr 20 peptide); type: biochemical
Outline: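 Ten-point threefold compound dilutions (1% DMSO) were incubated with PAK2 (0.29-6 ng) and Ser/Thr 20 substrate (2 μM) for 60 min at room temperature in HEPES pH 7.5 buffer with MgCl2, EGTA and BRIJ-35.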

PAK1 = PAK1 (Homo sapiens, UniProt Q13153); experiment: In vitro PAK inhibition assay (SelectScreen, Ser/Thr 19 peptide); type: biochemical
PAK1, sequence (Q13153 whole entry): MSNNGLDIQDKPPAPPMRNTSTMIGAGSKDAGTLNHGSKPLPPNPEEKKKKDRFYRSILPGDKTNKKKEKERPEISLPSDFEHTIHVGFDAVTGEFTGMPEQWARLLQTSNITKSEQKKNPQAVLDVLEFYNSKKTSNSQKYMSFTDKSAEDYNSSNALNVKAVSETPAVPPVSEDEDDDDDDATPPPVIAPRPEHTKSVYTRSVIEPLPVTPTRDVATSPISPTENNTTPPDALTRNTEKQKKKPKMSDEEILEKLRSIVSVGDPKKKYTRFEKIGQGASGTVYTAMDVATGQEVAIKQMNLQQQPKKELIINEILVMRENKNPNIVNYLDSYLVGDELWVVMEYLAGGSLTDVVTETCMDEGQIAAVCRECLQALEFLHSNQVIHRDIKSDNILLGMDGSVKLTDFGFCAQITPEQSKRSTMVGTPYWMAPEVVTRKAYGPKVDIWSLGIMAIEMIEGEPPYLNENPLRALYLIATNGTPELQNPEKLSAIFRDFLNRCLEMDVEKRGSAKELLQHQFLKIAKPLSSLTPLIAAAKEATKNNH
Outline: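 Ten-point, 3-fold compound series at 1% final DMSO were incubated with enzyme, Ser/Thr 19 peptide and ATP for 60 min at room temperature. Buffer was HEPES pH 7.5 (50 mM) with 10 mM MgCl2, 1 mM EGTA, 0.01% BRIJ-35. A 60 min development step preceded the fluorescence read converted to % phosphorylation.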

PAK3 = PAK3 (Homo sapiens, UniProt O75914); experiment: In vitro PAK inhibition assay (SelectScreen, Ser/Thr 20 peptide); type: biochemical
PAK3, sequence (O75914 whole entry): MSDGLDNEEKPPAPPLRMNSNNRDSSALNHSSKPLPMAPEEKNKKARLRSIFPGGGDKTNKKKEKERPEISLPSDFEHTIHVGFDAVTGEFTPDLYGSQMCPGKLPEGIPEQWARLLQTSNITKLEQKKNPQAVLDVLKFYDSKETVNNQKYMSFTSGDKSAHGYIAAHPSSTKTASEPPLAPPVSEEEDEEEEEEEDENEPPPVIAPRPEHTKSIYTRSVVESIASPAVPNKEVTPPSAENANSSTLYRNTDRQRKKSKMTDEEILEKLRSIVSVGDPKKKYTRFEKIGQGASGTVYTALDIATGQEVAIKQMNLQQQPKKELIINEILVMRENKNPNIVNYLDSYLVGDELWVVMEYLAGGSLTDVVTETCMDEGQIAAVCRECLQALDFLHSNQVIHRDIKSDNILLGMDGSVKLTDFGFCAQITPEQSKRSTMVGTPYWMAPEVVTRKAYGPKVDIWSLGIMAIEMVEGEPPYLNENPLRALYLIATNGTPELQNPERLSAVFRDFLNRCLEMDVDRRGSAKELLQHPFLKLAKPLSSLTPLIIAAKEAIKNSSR
Outline: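 Fluorescence-based development format: after a 60-min room-temperature kinase reaction and 60-min protease development, percent phosphorylation of Ser/Thr 20 peptide calculated via phosphopeptide controls. Buffer 50 mM HEPES pH 7.5, 10 mM MgCl2, 1 mM EGTA, 0.01% BRIJ-35; compounds at 1% DMSO, 10-point 3-fold dilution series.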

PAK4 = PAK4 (Homo sapiens, UniProt O96013); experiment: as above; type: biochemical
PAK4, sequence (O96013 whole entry): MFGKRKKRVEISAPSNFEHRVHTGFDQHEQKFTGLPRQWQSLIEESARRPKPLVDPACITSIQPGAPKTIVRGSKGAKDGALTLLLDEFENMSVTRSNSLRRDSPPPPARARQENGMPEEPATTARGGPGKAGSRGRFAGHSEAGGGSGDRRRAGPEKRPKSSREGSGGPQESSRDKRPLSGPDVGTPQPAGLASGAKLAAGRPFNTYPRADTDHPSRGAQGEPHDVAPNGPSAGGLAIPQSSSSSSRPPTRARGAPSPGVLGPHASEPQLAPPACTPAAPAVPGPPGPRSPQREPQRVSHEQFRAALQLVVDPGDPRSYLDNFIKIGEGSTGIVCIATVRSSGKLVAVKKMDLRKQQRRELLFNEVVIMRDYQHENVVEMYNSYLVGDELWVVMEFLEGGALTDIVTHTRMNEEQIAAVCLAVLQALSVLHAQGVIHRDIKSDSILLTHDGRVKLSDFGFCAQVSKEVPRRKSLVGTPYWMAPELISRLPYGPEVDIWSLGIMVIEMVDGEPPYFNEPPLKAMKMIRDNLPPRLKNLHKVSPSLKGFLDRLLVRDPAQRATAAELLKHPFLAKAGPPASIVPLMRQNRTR
Outline: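 Ten-point, 3-fold compound series (1% DMSO) incubated 1 h at room temperature with PAK4 (0.1-0.75 ng) and 2 μM Ser/Thr 20 peptide, HEPES pH 7.5 buffer with MgCl2, EGTA, BRIJ-35. Development reagent cleaves non-phosphorylated peptide; fluorescence emission ratio gives % phosphorylation, fitted sigmoidally for IC50.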

Nf2−/− SC4 cells = experiment: Growth inhibition of NF2 deficient cells (CellTiter-Glo); type: cell-based, mouse; conditions: 1 uM concentration for 72 hours, FIG. 4
Procedure: (§1) NF2 deficient cell lines were cultured in the appropriate medium. Once enough cells have propagated, plates of all adherent lines were seeded at 5,000-10,000 cells/well (depending on cell line) in a total volume of 50 μL, and plates of all suspension lines at 10,000-20,000 cells/well (depending on cell line) in a total volume of 50 μL. Plates were placed in a humidified cell culture incubator overnight to allow adherent cells to attach.
(§2) 10 mM stocks of each PAK inhibitor compound in DMSO were prepared. Dilutions were performed with media to provide 1% DMSO 2× stock solutions of each PAK inhibitor compound.
50 μL of all PAK inhibitor compound 2× stocks were added to appropriate wells already containing 50 μL of cells and medium to expose cells to the final concentrations of compounds required. 50 μL of media was added to media and cell control wells and 50 μL of mix to vehicle control wells. At the same time as drug exposure, a CTG (CellTiter-Glo Assay) assay was performed on the 0 hr plate to obtain a 0 hr count. […]
At the end of the 72 hour exposure period, plates were removed for a CTG assay from 37° C., 5% CO2 incubator and place on the bench at room temperature for 30 mins. […] Luminescence for each well was determined.
Growth inhibition percent was calculated using the following equation: (Growth %=(Sample Value−T0Ave)/(Max−T0Ave)*100). […]

[1] = test system: NF2−/− mesothelioma cells (NCI-H226); experiment: as above; type: cell-based; conditions: 0 μM-30 μM, 72 hours, FIG. 7
Procedure: as §1, §2
(§3) 50 μL of all PAK inhibitor compound 2× stocks were added to appropriate wells already containing 50 μL of cells and medium to expose cells to the final concentrations of compounds required. 50 μL of media was added to media and cell control wells and 50 μL of mix to vehicle control wells. At the same time as drug exposure, a CTG (CellTiter-Glo Assay) assay was performed on the 0 hr plate to obtain a 0 hr count. Cells were exposed to PAK inhibitor compounds or a DMSO control for 72 hours. Following the 72 hour exposure period, all remaining plates were assayed using CTG.
(§4) At the end of the 72 hour exposure period, plates were removed for a CTG assay from 37° C., 5% CO2 incubator and place on the bench at room temperature for 30 mins. 100 μL CTG reagent was added to each well, mixed for 2 minutes, followed by a further 10 minute incubation at room temperature. Luminescence for each well was determined.
(§5) Growth inhibition percent was calculated using the following equation: (Growth %=(Sample Value−T0Ave)/(Max−T0Ave)*100).
NF2^−/− mesothelioma cells (e.g., NCI-H226 cells) were treated with varying concentrations of a PAK inhibitor compound disclosed in Examples 33, 84, or 122.

EBC-1 cells = experiment: Growth inhibition of PAK1 amplified NSCLC cells (CellTiter-Glo); type: cell-based; conditions: 0 μM-30 μM, 72 hours, FIG. 8
Procedure: as §1, with “The PAK1 amplified” for “NF2 deficient”
as §2
as §3, with “50” for “50 μL of all PAK inhibitor compound 2× stocks were added to appropriate wells already containing 50 μL of cells and medium to expose cells to the final concentrations of compounds required. 50”
as §4, §5

NCI-H520 cells = experiment: as above; type: cell-based; conditions: 0 μM-30 μM, 72 hours, FIG. 9
Procedure: as §1, with “The PAK1 amplified” for “NF2 deficient”
as §2
as §3, with “50” for “50 μL of all PAK inhibitor compound 2× stocks were added to appropriate wells already containing 50 μL of cells and medium to expose cells to the final concentrations of compounds required. 50”
as §4, §5

SK-MES-1 cells = experiment: as above; type: cell-based; conditions: 0 μM-30 μM, 72 hours, FIG. 10
Procedure: as §1, with “The PAK1 amplified” for “NF2 deficient”
as §2
as §3, with “50” for “50 μL of all PAK inhibitor compound 2× stocks were added to appropriate wells already containing 50 μL of cells and medium to expose cells to the final concentrations of compounds required. 50”
as §4, §5

[2] = test system: Nf2−/− SC4 cells transplanted into the sciatic nerve sheath of NOD/SCID mice; experiment: Orthotopic NF2 deficient schwannoma mouse model, tumor weight; type: in vivo; conditions: intraneural Nf2−/− cells, FIG. 5
Source text: The NF2 protein is absent in ˜100% of sporadic schwannomas. Thus, an NF2 deficient-schwanoma mouse model was generated and used to evaluate treatment of sporadic schwannomas with a PAK inhibitor compound disclosed herein.
Murine Nf2^−/− cells may be generated by various means. For example, NF2^−/− cells may be generated by administering an shRNA or siRNA targeting an Nf2 gene, thereby disrupting the Nf2 gene. In another example, NF2^−/− cells may be generated by using a Cre recombinase.
Nf2^−/− SC4 cells may be generated by using a Cre recombinase. Pure populations of embryonic SC4 cells were isolated from Nf 2^loxP/loxP− mice at about embryonic day 13.5. […]
Nf2^−/− cells (e.g., Nf2^−/− SC4 control cells) were transduced by lentiviruses carrying pLuc-mCherry and sorted by FACS. […] Tumor progression was monitored weekly by bioluminescence imaging (BLI) according to the manufacturer's instructions on an IVIS-200 system. The mice were sacrificed and the tumors from the vehicle control treated and PAK inhibitor treated mice were measured.
NF2^−/− cells (e.g., Nf2^−/− SC4 control cells) were transduced by lentiviruses carrying pLuc-mCherry and sorted by FACS. […] Tumor progression was monitored weekly by bioluminescence imaging (BLI) according to the manufacturer's instructions on an IVIS-200 system. […]
At various time points, treatment efficacy was determined. […]

NF2−/− Schwannoma cells = experiment: Growth inhibition of NF2 deficient cells (CellTiter-Glo); type: cell-based; conditions: 1 uM concentration, FIG. 6
Procedure: as §1, §2, §3, §4, §5
NF2^−/− Schwannoma cells were treated with a DMSO control or a PAK inhibitor compound (1 uM concentration) disclosed in Examples 101, 122, or 190.

PAK2 (PAK65), sequence (Q13177 whole entry): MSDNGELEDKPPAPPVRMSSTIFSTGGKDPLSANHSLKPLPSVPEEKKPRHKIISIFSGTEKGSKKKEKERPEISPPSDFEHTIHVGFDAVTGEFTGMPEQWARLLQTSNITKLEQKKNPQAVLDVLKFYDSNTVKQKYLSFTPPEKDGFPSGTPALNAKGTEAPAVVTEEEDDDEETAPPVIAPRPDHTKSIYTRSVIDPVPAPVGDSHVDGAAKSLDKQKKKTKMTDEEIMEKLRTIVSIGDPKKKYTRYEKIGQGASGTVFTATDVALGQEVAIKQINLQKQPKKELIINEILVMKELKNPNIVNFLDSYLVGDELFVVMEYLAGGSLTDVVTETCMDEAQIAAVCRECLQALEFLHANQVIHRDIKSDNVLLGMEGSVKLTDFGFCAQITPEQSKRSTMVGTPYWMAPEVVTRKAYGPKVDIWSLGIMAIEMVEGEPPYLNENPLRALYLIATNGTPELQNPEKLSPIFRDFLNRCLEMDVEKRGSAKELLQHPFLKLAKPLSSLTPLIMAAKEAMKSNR

SMILES	IC50 (PAK2 (PAK65)) [µM]	IC50 (PAK1) [µM]	IC50 (PAK3) [µM]	IC50 (PAK4) [µM]	other results
CCn1c(=O)c(-c2ccc(-c3csc(C)n3)s2)cc2cnc(Nc3ccc(N4CCN(C)CC4)cc3)nc21	> 5	> 5	> 5	≥ 5	
CCn1c(=O)c(-c2ccc(-c3noc(C)n3)s2)cc2cnc(Nc3ccc(N4CCN(C)CC4)cc3)nc21	> 5	> 5	> 5	≥ 5	
CCn1c(=O)c(-c2ccc(-c3ccccn3)s2)cc2cnc(Nc3ccc(N4CCN(C)CC4)cc3)nc21	> 5	> 5	> 5	≥ 5	
CCn1c(=O)c(-c2ccc(-c3cccnc3)s2)cc2cnc(Nc3ccc(N4CCN(C)CC4)cc3)nc21	> 5	> 5	> 5	≥ 5	
CCn1c(=O)c(-c2ccc(-c3nnn[nH]3)s2)cc2cnc(Nc3ccc(N4CCN(C)CC4)cc3)nc21	> 5	> 5	> 5	≥ 5	
CCn1c(=O)c(-c2ccc(-c3cccnc3F)cc2Cl)cc2cnc(Nc3ccc(N4CCN(C)CC4)cc3)nc21 [Example 33]					cell number compared to DMSO control treated cells (Nf2−/− SC4 cells): reduction in cell number; growth (%) with increasing concentration [1]: the growth (%) of the cells reduced; growth (%) with increasing concentration (EBC-1 cells): the growth (%) decreased; growth (%) with increasing concentration (NCI-H520 cells): the growth (%) decreased; growth (%) with increasing concentration (SK-MES-1 cells): the growth (%) decreased
CCn1c(=O)c(-c2ccc(-c3cncs3)cc2Cl)cc2cnc(Nc3ccc(N4CCN(C)CC4)cc3)nc21 [Example 84]					average tumor weight versus vehicle control treated mice [2]: less than the average tumor weight of the vehicle control treated mice; cell number compared to DMSO control treated cells (Nf2−/− SC4 cells): reduction in cell number; growth (%) with increasing concentration [1]: the growth (%) of the cells reduced
CCn1c(=O)c(-c2ccc(-c3cnc(C)s3)cc2Cl)cc2cnc(Nc3ccc(C4CCN(C)CC4)cc3)nc21 [Example 101]					cell number compared to DMSO control treated cells (NF2−/− Schwannoma cells): reduction in cell number
CCn1c(=O)c(-c2ccc(-c3noc(C)n3)cc2Cl)cc2cnc(Nc3ccc(C4CCN(C)CC4)cc3)nc21 [Example 122]					growth (%) with increasing concentration [1]: the growth (%) of the cells reduced; cell number compared to DMSO control treated cells (NF2−/− Schwannoma cells): reduction in cell number; growth (%) with increasing concentration (EBC-1 cells): the growth (%) decreased; growth (%) with increasing concentration (NCI-H520 cells): the growth (%) decreased; growth (%) with increasing concentration (SK-MES-1 cells): the growth (%) decreased
CCn1c(=O)c(-c2ccc(-c3cncc(C)n3)cc2Cl)cc2cnc(Nc3ccc(C4CCN(C)CC4)cc3)nc21 [Example 190]					cell number compared to DMSO control treated cells (NF2−/− Schwannoma cells): reduction in cell number

More lines, main results first:

IC50 (PAK2 (PAK65)) [µM]	IC50 (PAK1) [µM]	IC50 (PAK3) [µM]	IC50 (PAK4) [µM]	SMILES	other results
0.5 to 5	0.05 to 0.5	> 5	≥ 5	CCn1c(=O)c(-c2ccc(-c3cccs3)cc2)cc2cnc(Nc3ccc(N4CCN(C)CC4)cc3)nc21	
> 5	> 5	> 5	≥ 5	CCn1c(=O)c(-c2ccc(-c3nnn[nH]3)cc2Cl)cc2cnc(Nc3ccc(N4CCN(C)CC4)cc3)nc21	
< 0.05	< 0.05	< 0.05	0.05 to 0.5	CCn1c(=O)c(-c2ccc(-c3ccc(OC)nc3)cc2Cl)cc2cnc(Nc3ccc(N4CCN(C)CC4)cc3)nc21	
< 0.05	< 0.05	< 0.05	≥ 5	CCn1c(=O)c(-c2ccc(-c3cccnc3)cc2Cl)cc2cnc(Nc3ccc(N4CCN(C(C)C)CC4)cc3)nc21 [drawing 650]	
< 0.05	< 0.05	< 0.05	0.05 to 0.5	CCn1c(=O)c(-c2ccc(-c3cccnc3)cc2Cl)cc2cnc(Nc3ccc(N4CCN(C(C)C)CC4)cc3)nc21 [drawing 655]	
